Laboratory results published in patent publication US7579006B2, “Method of treating immune pathologies with low dose estrogen” (Oregon Health and Science University, priority 2000, dated 2009).

How the values were obtained:
[1] = test system: spinal cord mononuclear cells; assay: Mononuclear cell infiltration into spinal cords of Tg females with EAE; assay type: in vivo, mice; settings: 0.36 mg pellet
Experimental: Induction of active EAE. EAE was induced, and disease assessed, essentially as described in Example II. Disease onset was defined as the first day of clinical signs, peak—acute phase of EAE—as maximum severity of clinical signs (day 16-17 after immunization with encephalitogenic peptide) and recovery as day 28 post-immunization, when clinical severity of EAE was diminished. The cumulative disease index (CDI) was determined for each mouse by summing the daily clinical scores. Mice selected from control, ovariectomized, and 17β-estradiol treated groups were sacrificed and spinal cords were isolated by insufflation and frozen at −70 C or mononuclear cells were isolated over a Percoll step gradient and counted as described in Offner et al., J. Immunol. 161:2178-2186 (1998). Lymph nodes (LN) or spleens (SPL) were removed surgically and passed through a wire mesh screen to obtain a single-cell suspension. Frozen spinal cords were subsequently thawed and evaluated for expression of chemokines, chemokine receptors and cytokines by the RNase protection assay.

B10.PL mice = assay: EAE induced with MBP Ac1-11 in B10.PL mice; assay type: in vivo; settings: for inhibition of EAE: B10.PL females
spinal cord mRNA = assay: RNAse protection assay of spinal cords of wildtype and cytokine knockout mice with EAE; assay type: in vivo
Experimental: RNAse protection assay. Chemokine, chemokine receptor and cytokine mRNAs were detected by RPA essentially as described in Example III, except that analysis was performed on 20 μg total RNA.
Estrogen treatment reduces chemokine and chemokine receptor mRNA expression in the CNS. The egress of inflammatory cells into the CNS is a critical first step in the development of EAE. Chemokines are low molecular weight chemotactic molecules that are thought to play an important role in the migration and retention of immunocompetent cells in the CNS. The influence of E2 treatment on chemokine and chemokine receptor mRNA in the spinal cords of WT and cytokine deficient mice was measured using the RNAse protection assay (RPA). Total RNA was purified from spinal cords collected from mice at the peak of EAE (day 12-16 post-immunization) and chemokine/chemokine receptor specific mRNA was detected using radiolabeled riboprobes. mRNAs coding for many of the chemokine and receptor family members were detectable in the spinal cords of WT C57BL/6 mice with EAE (FIG. 18). RANTES and IP-10 were expressed at the highest levels, followed by MIP-1α, MIP-2 and MCP-1. The levels of TCA-3 mRNA were below the limits of detection for this assay. […]
The expression of cytokine mRNA in the spinal cords of mice at the peak of EAE (day 12-16 post-immunization) was measured by RPA analysis. […]

Tg female mice = assay: EAE in BV8S2 transgenic (Tg) female mice; assay type: in vivo; settings: for inhibition of EAE: Tg females
[2] = test system: Vβ8.1/8.2 TCR+ spleen cells; assay: Intracellular cytokine staining of MOG 35-55 stimulated spleen cells; assay type: in vivo, mice
Experimental: Intracellular staining for cytokines. Single cell suspensions from spleen were prepared from immunized mice and cultured at 10×10^6 cells/ml in stimulation media containing 50 μg/ml of MOG 35-55. The cells were stimulated for 24 hrs, the last 5 hrs in the presence of Brefeldin A. The cells were then stained with anti-Vβ8.1/8.2 TCR FITC for 30 min at 4° C. prior to fixation and permeabilization with cytofix/cytoperm solution (Pharmingen, Inc.). The cells were then stained with anti-cytokine antibodies labeled with phycoerythrin (anti-mouse IFN-γ, TNF-α, IL-4, IL-10, and IL-12 from Pharmingen Inc.) for 30 min at 4° C. The cells were washed twice in perm/wash buffer (Pharmingen, Inc.) and once in FACS staining buffer (PBS, 1% BSA, 0.05% NaN3) prior to two-color FACS analysis on a FACScan instrument (Beckton-Dickenson, Inc., Sunnyvale, Calif.) using Cell Quest software (Beckton-Dickenson, Inc.). For each experiment the cells were stained with isotype control antibodies to establish background staining and to set the quadrants prior to calculating the percent positive cells.
In order to determine whether estrogen treatment promotes a shift towards Th2 immunity, the frequency of both pro- and anti-inflammatory cytokine producing cells in untreated and E2 treated mice was assessed, using the intracellular cytokine staining technique. Spleen cells were prepared from untreated and E2 treated mice at the peak of EAE (day 12-16 post-immunization) and stimulated with MOG 35-55 for 24 hr, the last […] in the presence of Brefeldin A. The cells were stained with FITC labeled anti-Vβ8.1/8.2 TCR antibodies prior to fixation and permeabilization, and then were stained with the indicated phycoerythrin labeled anti-cytokine antibodies. Vβ8.1/8.2 TCR bearing T cells were focused on because they are thought to comprise a major population of the MOG-35-55 specific T cell responses in H-2b mice.

[3] = 0.36 mg pellet, intact Tg females (Example III)
[4] = non-ovariectomized Tg females, BV8S2 with weekly boosting, E2 0.36 mg pellets

C[C@]12CC[C@@H]3c4ccc(O)cc4CC[C@H]3[C@@H]1CC[C@@H]2O [17β-estradiol]
Mean clinical score at time of cord removal [1]: 1.3 | Number of cells/cord [1]: 10000 cells/cord | prevention of infiltration of mononuclear cells into spinal cords [1]: approximately 60% | CDT (B10.PL mice; 0.18 mg/pellet (diestrus)): 5.8 ± 2.9 | Incidence (B10.PL mice; 0.18 mg/pellet (diestrus)): 3/6 | Incidence (%) (B10.PL mice; 0.18 mg/pellet (diestrus)): 50% | Onset (B10.PL mice; 0.18 mg/pellet (diestrus)): 25.7 ± 1.2 days | Peak (disease score) (B10.PL mice; 0.18 mg/pellet (diestrus)): 1.7 ± 0.92 | CDT (B10.PL mice; 0.36 mg/pellet (estrus)): 13.5 ± 6.2 | Incidence (B10.PL mice; 0.36 mg/pellet (estrus)): 15/26 | Incidence (%) (B10.PL mice; 0.36 mg/pellet (estrus)): 58% | Onset (B10.PL mice; 0.36 mg/pellet (estrus)): 26.5 ± 1.3 days | Peak (disease score) (B10.PL mice; 0.36 mg/pellet (estrus)): 2.61 ± 0.60 | CDT (B10.PL mice; 2.50 mg/pellet (pregnancy)): 0 ± 0 | Incidence (B10.PL mice; 2.50 mg/pellet (pregnancy)): 0/15 | Incidence (%) (B10.PL mice; 2.50 mg/pellet (pregnancy)): 0% | Onset (B10.PL mice; 2.50 mg/pellet (pregnancy)): 0 ± 0 days | Peak (disease score) (B10.PL mice; 2.50 mg/pellet (pregnancy)): 0 ± 0 | CDT (B10.PL mice; 15.0 mg/pellet (high)): 1.4 ± 3.8 | Incidence (B10.PL mice; 15.0 mg/pellet (high)): 2/8 | Incidence (%) (B10.PL mice; 15.0 mg/pellet (high)): 25% | Onset (B10.PL mice; 15.0 mg/pellet (high)): 29 ± 1.4 days | Peak (disease score) (B10.PL mice; 15.0 mg/pellet (high)): 2.0 ± 1.0 | inhibition of EAE (B10.PL mice; 2.5 mg pellets): essentially complete inhibition of EAE | inhibition of EAE (B10.PL mice; 15 mg pellets): essentially complete inhibition of EAE | inhibition of EAE (B10.PL mice; estrus (0.36 mg pellets) to diestrus levels (0.10 mg pellets)): substantial inhibition | levels of LT-β, TNF-α and IFN-γ mRNA in spinal cords (spinal cord mRNA; C57BL/6 and cytokine knockout mice, except LT-β in IFN-γ deficient mice): significantly reduced | expression of all chemokine and chemokine receptor mRNA in spinal cord (spinal cord mRNA; WT and cytokine deficient mice, 2.5 mg pellet): significantly diminished or absent | CDI (Tg female mice; [3]): 40.4 ± 7.1 | Incidence (Tg female mice; [3]): 15/18 | Onset (Tg female mice; [3]): 17.4 ± 1.8 | Peak (Tg female mice; [3]): 2.5 ± 0.5 | inhibition of EAE (Tg female mice; 0.36 mg pellets): only moderate inhibition | inhibition of EAE (Tg female mice; 15 mg pellets): marked but incomplete inhibition of EAE | Average CDI (10-30) (Tg female mice; [4]): 37.3 ± 6.2^A | Incidence (Tg female mice; [4]): 25/33 | Mortality (Tg female mice; [4]): 1/33 | Onset (Tg female mice; [4]): 15.1 ± 2.1A | Peak (Tg female mice; [4]): 3.6 ± 0.7^A | frequency of TNF-α producing Vβ8.1/8.2 TCR+ cells ([2]; C57BL/6 mice, p=0.004): significantly diminished | frequency of TNF-α producing Vβ8.1/8.2 TCR+ cells ([2]; IFN-γ knockout mice): no further reduction | frequency of TNF-α producing Vβ8.1/8.2 TCR+ cells ([2]; IL-4 knockout mice, p=0.06): significantly diminished | frequency of TNF-α producing Vβ8.1/8.2 TCR+ cells ([2]; IL-10 knockout mice, p=0.001): significantly diminished | frequency of IFN-γ producing cells ([2]; trend, p>0.05): lower frequency
